Converted amounts (≈) assume the structure as drawn.
Test system: H. influenzae
Assay: MIC by micro-dilution method, H. influenzae isolates
Format: cell-based, Haemophilus influenzae
Procedure: Susceptibility tests can be used to quantitatively measure the in vitro activity of an antimicrobial agent against a given bacterial isolate. Compounds are tested for in vitro antibacterial activity by a micro-dilution method. Minimal Inhibitory Concentration (MIC) is determined in 96 well microtiter plates utilizing the appropriate broth medium for the observed bacterial isolates. […] The diluted compounds (2 μl/well) are then transferred into sterile, uninoculated medium (0.2 mL) by use of a 96 fixed tip-pipetting station. The inoculum for each bacterial strain is standardized to approximately 5×10^5 CFU/mL by optical comparison to a 0.5 McFarland turbidity standard. The plates are inoculated with 10 μl/well of adjusted bacterial inoculum. The 96 well plates are covered and incubated at 35+/−2° C. for 24 hours in ambient air environment. Following incubation, plate wells are visually examined by Optical Density measurement for the presence of growth (turbidity). The lowest concentration of an antimicrobial agent at which no visible growth occurs is defined as the MIC.
All in vitro testing follows the guidelines described in the Approved Standards M7-A7 protocol, published by the Clinical Laboratory Standards Institute (CLSI).

Structure (SMILES)	MIC (H. influenzae 33929) [µg/mL]	MIC (H. influenzae 49247) [µg/mL]
CCC1OC(=O)C(C)C(=O)C(C)C(OC2OC(C)CC(N(C)C)C2O)C2(C)CC(C)C(=O)C(C)C(OCC(=NOCc3noc(-c4cccc(N)n4)n3)CO2)C1(C)O (centres unmarked) [Example 54]	1 (≈ 1.22 µM)	1 (≈ 1.22 µM)
CCC1OC(=O)C(C)(F)C(=O)C(C)C(OC2OC(C)CC(N(C)C)C2O)C2(C)CC(C)C(=O)C(C)C(OCC(=NOCc3nc(-c4cccc(N)n4)no3)CO2)C1(C)O (centres unmarked) [Example 52]	1 (≈ 1.2 µM)	2 (≈ 2.4 µM)
CCC1OC(=O)C(C)(F)C(=O)C(C)C(OC2OC(C)CC(N(C)C)C2O)C2(C)CC(C)C(=O)C(C)C(OCC(=NOCc3ccc(-c4nc(N)ns4)cc3)CO2)C1(C)O (centres unmarked) [Example 56]	2 (≈ 2.35 µM)	2 (≈ 2.35 µM)
CCC1OC(=O)C(C)C(=O)C(C)C(OC2OC(C)CC(N(C)C)C2O)C2(C)CC(C)C(=NC(C)=O)C(C)C(OCC(=NOCc3cnc(-c4cccc(N)n4)o3)CO2)C1(C)O (centres unmarked) [Example 70]	2 (≈ 2.33 µM)	2 (≈ 2.33 µM)
CCC1OC(=O)C(C)C(=O)C(C)C(OC2OC(C)CC(N(C)C)C2O)C2(C)CC(C)C(=O)C(C)C(OCC(=NOCc3ccc(-c4nc(N)ns4)nc3)CO2)C1(C)O (centres unmarked) [Example 61]	2 (≈ 2.4 µM)	2 (≈ 2.4 µM)
CCC1OC(=O)C(C)C(=O)C(C)C(OC2OC(C)CC(N(C)C)C2O)C2(C)CC(C)C(=O)C(C)C(OCC(=NOCc3ccc(-c4nc(N)no4)nc3)CO2)C1(C)O (centres unmarked) [Example 51]	2 (≈ 2.45 µM)	2 (≈ 2.45 µM)
CCC1OC(=O)C(C)(F)C(=O)C(C)C(OC2OC(C)CC(N(C)C)C2O)C2(C)CC(C)C(=O)C(C)C(OCC(=NOCc3ccc(-c4nc(N)no4)cc3)CO2)C1(C)O (centres unmarked) [Example 38]	2 (≈ 2.4 µM)	4 (≈ 4.8 µM)
CCC1OC(=O)C(C)(F)C(=O)C(C)C(OC2OC(C)CC(N(C)C)C2O)C2(C)CC(C)C(=O)C(C)C(OCC(=NOCc3ccc(-c4nc(N)no4)cn3)CO2)C1(C)O (centres unmarked) [Example 43]	2 (≈ 2.4 µM)	2 (≈ 2.4 µM)
CCC1OC(=O)C(C)C(=O)C(C)C(OC2OC(C)CC(N(C)C)C2O)C2(C)CC(C)C(=O)C(C)C(OCC(=NOCc3ccc(-c4noc(N)n4)nc3)CO2)C1(C)O (centres unmarked) [Example 62]	2 (≈ 2.45 µM)	2 (≈ 2.45 µM)
CCC1OC(=O)C(C)C(=O)C(C)C(OC2OC(C)CC(N(C)C)C2O)C2(C)CC(C)C(=O)C(C)C(OCC(=NOCc3ncc(-c4cccc(N)n4)cn3)CO2)C1(C)O (centres unmarked) [Example 50]	2 (≈ 2.42 µM)	2 (≈ 2.42 µM)
CCC1OC(=O)C(C)C(=O)C(C)C(OC2OC(C)CC(N(C)C)C2O)C2(C)CC(C)C(=O)C(C)C(OCC(=NOCc3ccc(-c4nsc(N)n4)cn3)CO2)C1(C)O (centres unmarked) [Example 35]	2 (≈ 2.4 µM)	2 (≈ 2.4 µM)
CCC1OC(=O)C(C)(F)C(=O)C(C)C(OC2OC(C)CC(N(C)C)C2O)C2(C)CC(C)C(=NC(C)=O)C(C)C(OCC(=NOCc3ccn(-c4cccc(N)n4)n3)CO2)C1(C)O (centres unmarked) [Example 59]	2 (≈ 2.29 µM)	2 (≈ 2.29 µM)
CCC1OC(=O)C(C)C(=O)C(C)C(OC2OC(C)CC(N(C)C)C2O)C2(C)CC(C)C(=O)C(C)C(OCC(=NOCc3cnc(-c4cccc(N)n4)s3)CO2)C1(C)O (centres unmarked) [Example 34]	2 (≈ 2.4 µM)	2 (≈ 2.4 µM)
CCC1OC(=O)C(C)(F)C(=O)C(C)C(OC2OC(C)CC(N(C)C)C2O)C2(C)CC(C)C(=O)C(C)C(OCC(=NOCc3ccc(-n4ccc(N)n4)nc3)CO2)C1(C)O (centres unmarked) [Example 49]	2 (≈ 2.4 µM)	2 (≈ 2.4 µM)
CCC1OC(=O)C(C)C(=O)C(C)C(OC2OC(C)CC(N(C)C)C2O)C2(C)CC(C)C(=O)C(C)C(OCC(=NOCc3ncc(-c4cccc(N)n4)s3)CO2)C1(C)O (centres unmarked) [Example 36]	2 (≈ 2.4 µM)	2 (≈ 2.4 µM)
CCC1OC(=O)C(C)C(=O)C(C)C(OC2OC(C)CC(N(C)C)C2O)C2(C)CC(C)C(=O)C(C)C(OCC(=NOCc3ccc(-c4nc(N)cs4)cn3)CO2)C1(C)O (centres unmarked) [Example 32]	2 (≈ 2.4 µM)	2 (≈ 2.4 µM)
CCC(=O)N=C1C(C)CC2(C)OCC(=NOCc3ccn(-c4cccc(N)n4)n3)COC(C1C)C(C)(O)C(CC)OC(=O)C(C)(F)C(=O)C(C)C2OC1OC(C)CC(N(C)C)C1O (centres unmarked) [Example 57]	4 (≈ 4.5 µM)	2 (≈ 2.25 µM)
CCC1OC(=O)C(C)C(=O)C(C)C(OC2OC(C)CC(N(C)C)C2O)C2(C)CC(C)C(=O)C(C)C(OCC(=NOCc3cnc(-c4nsc(N)n4)cn3)CO2)C1(C)O (centres unmarked) [Example 68]	2 (≈ 2.4 µM)	2 (≈ 2.4 µM)
CCC1OC(=O)C(C)C(=O)C(C)C(OC2OC(C)CC(N(C)C)C2O)C2(C)CC(C)C(=O)C(C)C(OCC(=NOCc3ccn(-c4cccc(N)n4)n3)CO2)C1(C)O (centres unmarked) [Example 58]	2 (≈ 2.45 µM)	2 (≈ 2.45 µM)

From US20130165641A1, “6,11-BRIDGED BIARYL MACROLIDES” (Enanta Pharmaceuticals, Inc., priority 2007, published 2013)
